According to patent publication US20240199630A1, “IMIDAZO[1,2-B]PYRIDAZINE BASED TRICYCLIC COMPOUNDS AS INHIBITORS OF HASPIN AND THERAPEUTIC USES THEREOF” (FUNDACIÓN DEL SECTOR PÚBLICO ESTATAL CENTRO NACIONAL DE …, priority 2021, published 2024):

Biological target: HASPIN (Homo sapiens (Human), UniProt Q8TF76)
Test: HASPIN biochemical assay (ADP-Glo, HASPIN autophosphorylation)
Conditions: ATP 150 μM, 60 min at 30° C.
Experimental: HASPIN biochemical Assay: The biochemical assay to measure HASPIN activity relies on the ADP-Glo™ assay kit (Promega) that determines the amount of ADP as direct product of the kinase enzyme activity. Assay conditions were as indicated by the kit manufacturers with the following adaptations for the kinase activity step: Kinase assay buffer and assay volume (15 mM HEPES pH 7.5, 20 mM NaCl, 1 mM EGTA, 0.02% TWEEN 20, 10 mM MgCl2, 0.1 mg/ml BGG)/25 μL assay volume). Incubation time and temperature: 60 min at 30° C. HASPIN final concentration: 0.9 μg/mL. ATP final concentration: 150 μM. HASPIN autophosphorylation was measured. Assays were performed in 384-well plates. The final outcome of the coupled reactions provided by the kit is the release of luciferase and has been measured with a multilabel HTS counter Victor V/Envision. Values were normalized against the control activity included (100% HASPIN activity, without compound). Values were plotted against the inhibitor concentration and fit to a sigmoid dose-response curve using Activity base by IDBS software.

Sequence of HASPIN (Q8TF76 whole entry): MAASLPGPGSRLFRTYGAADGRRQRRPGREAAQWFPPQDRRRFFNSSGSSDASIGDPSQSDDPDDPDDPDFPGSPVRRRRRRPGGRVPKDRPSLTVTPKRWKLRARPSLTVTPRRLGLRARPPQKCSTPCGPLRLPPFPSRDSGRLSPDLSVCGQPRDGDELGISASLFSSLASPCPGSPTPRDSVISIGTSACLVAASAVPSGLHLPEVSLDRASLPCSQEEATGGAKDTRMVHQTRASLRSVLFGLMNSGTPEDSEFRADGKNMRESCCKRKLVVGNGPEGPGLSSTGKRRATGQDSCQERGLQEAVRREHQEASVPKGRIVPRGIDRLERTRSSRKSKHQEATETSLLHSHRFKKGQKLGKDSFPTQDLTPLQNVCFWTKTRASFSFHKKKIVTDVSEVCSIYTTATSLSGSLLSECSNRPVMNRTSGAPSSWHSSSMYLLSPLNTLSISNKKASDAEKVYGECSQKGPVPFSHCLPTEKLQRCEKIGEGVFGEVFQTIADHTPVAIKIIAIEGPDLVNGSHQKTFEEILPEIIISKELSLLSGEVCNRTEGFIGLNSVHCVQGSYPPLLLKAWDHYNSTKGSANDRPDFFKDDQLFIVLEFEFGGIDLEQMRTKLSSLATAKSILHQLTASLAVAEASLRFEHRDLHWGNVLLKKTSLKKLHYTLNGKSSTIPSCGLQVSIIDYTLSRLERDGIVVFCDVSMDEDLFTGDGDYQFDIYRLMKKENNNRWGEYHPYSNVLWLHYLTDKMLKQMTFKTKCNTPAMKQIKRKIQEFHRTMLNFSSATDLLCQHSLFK

IC50 [nM]	SMILES
20.7	Cc1nc2c3c(c(NCC4(F)CCNCC4)nn2c1-c1ccnc(Cl)c1)C[C@H](C)O3 (single isomer, unassigned) [Compound 35]
6.37	Cc1nc2c3c(c(NCC4(F)CCNCC4)nn2c1-c1ccnc(Cl)c1)CC(C)O3 (racemic) [Compound 33, [3-(2-Chloro-pyridin-4-yl)-2,7-dimethyl-6,7-dihydro-8-oxa-1,3a,4-triaza-as-indacen-5-yl]-(4-fluoro-piperidin-4-ylmethyl)-amine]
5.87	Cc1nc2c3c(c(NCC4(F)CCNCC4)nn2c1-c1ccnc(Cl)c1)C[C@@H](C)O3 (single isomer, unassigned) [Compound 34]

Biological target: intracellular HASPIN (phosphorylation of the HASPIN substrate H3T3) (Homo sapiens (Human), UniProt Q8TF76)
Sequence (Q8TF76 whole entry): as above
Test: Cellular HASPIN inhibition assay (phosphorylation of H3T3), western blot in MV4:11 cells
Type: cell-based
Conditions: 8 hours of treatment, read-out: pH3T3 EC50
Experimental: 10 min. The protein content of the lysates is determined by DC protein assay (Biorad, Ref. 5000116).

EC50 [nM]	SMILES
< 50	Cc1nc2c3c(c(NCC4(F)CCNCC4)nn2c1-c1ccnc(Cl)c1)C[C@H](C)O3 (single isomer, unassigned) [Compound 35]
< 50	Cc1nc2c3c(c(NCC4(F)CCNCC4)nn2c1-c1ccnc(Cl)c1)C[C@@H](C)O3 (single isomer, unassigned) [Compound 34]

Biological target: PIM1 (Homo sapiens (Human), UniProt P11309)
Sequence (P11309 whole entry, species assumed): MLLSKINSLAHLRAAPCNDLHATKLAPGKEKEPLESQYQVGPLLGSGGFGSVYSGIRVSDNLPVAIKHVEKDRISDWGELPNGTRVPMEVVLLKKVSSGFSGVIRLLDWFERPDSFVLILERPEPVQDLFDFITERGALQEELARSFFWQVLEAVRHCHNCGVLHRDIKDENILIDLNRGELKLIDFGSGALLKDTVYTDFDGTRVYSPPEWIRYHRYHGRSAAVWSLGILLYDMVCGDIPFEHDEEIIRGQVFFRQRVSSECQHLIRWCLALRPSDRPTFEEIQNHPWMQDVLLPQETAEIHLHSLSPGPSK
Test: PIM1 activity, methodology of WO2013/005041
Type: biochemical
Conditions: compounds from the present invention

IC50 [nM]	SMILES
3180	Cc1nc2c3c(c(N[C@H]4CC[C@@](C)(O)CC4)nn2c1-c1ccncc1)OCCN3C [Compound 27, 4-(2,9-Dimethyl-3-pyridin-4-yl-8,9-dihydro-7H-6-oxa-1,3a,4,9-tetraaza-cyclopenta[a]naphthalen-5-ylamino)-1-methyl-cyclohexanol]
3400	Cc1nc2c3c(c(N4CCCC(CN)C4)nn2c1-c1ccnc(Cl)c1)CCCO3 (centres unmarked) [Compound 2, C-{1-[3-(2-Chloro-pyridin-4-yl)-2-methyl-7,8-dihydro-6H-9-oxa-1,3a,4-triaza-cyclopenta[a]naphthalen-5-yl]-piperidin-3-yl}-methylamine]
> 10000	Cc1nc2c3c(c(N4CCC[C@@H](CN)C4)nn2c1-c1ccnc(Cl)c1)CCCO3 [Compound 3, C-{(S)-1-[3-(2-Chloro-pyridin-4-yl)-2-methyl-7,8-dihydro-6H-9-oxa-1,3a,4-triaza-cyclopenta[a]naphthalen-5-yl]-piperidin-3-yl}-methylamine]
2270	Cc1nc2c3c(c(N4CCC[C@H](CN)C4)nn2c1-c1ccnc(Cl)c1)CCCO3 [Compound 4, C-{(R)-1-[3-(2-Chloro-pyridin-4-yl)-2-methyl-7,8-dihydro-6H-9-oxa-1,3a,4-triaza-cyclopenta[a]naphthalen-5-yl]-piperidin-3-yl}-methylamine]
1810	Cc1nc2c3c(c(NCCCCO)nn2c1-c1ccnc(Cl)c1)N(C)CCO3 [Compound 12, 4-[3-(2-Chloro-pyridin-4-yl)-2,6-dimethyl-7,8-dihydro-6H-9-oxa-1,3a,4,6-tetraaza-cyclopenta[a]naphthalen-5-ylamino]-butan-1-ol]
3300	Cc1nc2c3c(c(NCC4(F)CCNCC4)nn2c1-c1ccncc1)CCCO3 [Compound 6, (4-Fluoro-piperidin-4-ylmethyl)-(2-methyl-3-pyridin-4-yl-7,8-dihydro-6H-9-oxa-1,3a,4-triaza-cyclopenta[a]naphthalen-5-yl)-amine]
1090	Cc1nc2c3c(c(NCC4CCNCC4)nn2c1-c1ccnc(Cl)c1)N(C)CCO3 [Compound 10, [3-(2-Chloro-pyridin-4-yl)-2,6-dimethyl-7,8-dihydro-6H-9-oxa-1,3a,4,6-tetraaza-cyclopenta[a]naphthalen-5-yl]-piperidin-4-ylmethyl-amine]

System: MV4:11 (AML cell line)
Test: Combination viability assay (CellTiter-Glo), Bliss combination index
Conditions: MV4:11 cell line, 72 h; agent 1 μM combined with compound 3 at 2 μM; CI<1 synergism
Experimental: The cells were harvested just before reaching confluency, counted with a haemocytometer and diluted with media. Cells were then seeded in 96-well microtiter plates at a density of 5,000 cells/well. Cells were incubated for 24 hours before adding the compounds. Compounds were weighed out and diluted with DMSO to a final concentration of 10 mM. From here a “mother plate” was prepared at 200X the final concentration in the culture. The final concentration of DMSO in the tissue culture media should not exceed 1%. […] Each compound was assayed in duplicate. Cells were exposed to the compounds for 72 h and then processed for CellTiter-Glo® Luminescent Cell Viability Assay (Promega) read out according to manufacturer's Instruction and read on EndVision (Perkin Elmer). Percentage of viability inhibition was calculated using ActivityBase from IDBS. Potential synergy between drugs was evaluated by calculating the combination index (CI) based on the Bliss Independence model, whereby the CI was calculated with the following equation:
where Ea indicates the viability effect of drug A, Eb indicates the viability effect of drug B and Eab indicates the viability effect of the drug combination. CI<1 indicates synergism, CI=1 indicates additivity and CI>1 indicates antagonism.

SMILES	CI (combination index)
C[C@]12CC[C@@H]3c4ccc(O)cc4C[C@@H](CCCCCCCCC[S+]([O-])CCCC(F)(F)C(F)(F)F)[C@H]3[C@@H]1CC[C@@H]2O (some centres unmarked) [Fulvestrant]	0.60
CS(=O)(=O)N1CCN(Cc2cc3nc(-c4cccc5[nH]ncc45)nc(N4CCOCC4)c3s2)CC1 [GDC-0941, Pictilisib]	0.85
C#Cc1cccc(Nc2ncnc3cc(OCCOC)c(OCCOC)cc23)c1 [ERLOTINIB, Erlotinib]	0.62
O=C(CCCCCCNC(=O)c1cnc(N(c2ccccc2)c2ccccc2)nc1)NO [Ricolinostat, ACY-1215, Ricolinostat]	0.69
CN(NC(=O)CC(=O)NN(C)C(=S)c1ccccc1)C(=S)c1ccccc1 [ELESCLOMOL, Elesclomol]	0.78
Cc1ccc(Nc2nccc(N(C)c3ccc4c(C)n(C)nc4c3)n2)cc1S(N)(=O)=O [Pazopanib]	0.57
CC(C)[C@H](O)C(=O)N[C@@H](C)C(=O)N[C@@H]1C(=O)N(C)CCc2ccccc21 [Semagacestat]	0.53
CCN(CC)C(=S)SSC(=S)N(CC)CC [Disulfiram]	0.67
NC1(c2ccc(-c3nc4ccn5c(=O)[nH]nc5c4cc3-c3ccccc3)cc2)CCC1 [MK-2206]	0.64
Cc1nc(NC(=O)N2CCC[C@H]2C(N)=O)sc1-c1ccnc(C(C)(C)C(F)(F)F)c1 [BYL-719, Alpelisib]	0.59
CC[C@H](Nc1ncnc2[nH]cnc12)c1nc2cccc(F)c2c(=O)n1-c1ccccc1 [CAL-101, IDELALISIB, Idelalisib]	0.67
